Assay results: PMC10924921, “Mi-2β promotes immune evasion in melanoma by activating EZH2 methylation” (Nature Communications, 2024)

What was measured:
Assay in all cases: biochemical
Parameters in all cases: KINOMEscan active-site competition binding panel (468 kinase assays), per cent of control at 1000 nM
Settings in all cases: KINOMEscan per cent of control (binding competition); read-out: Percent Control
HASPIN = HASPIN (Homo sapiens, UniProt Q8TF76)
Description: (§1) Figure S7 / Percent Control

PFTAIRE2 = target: T1, PFTAIRE2 (Homo sapiens, UniProt Q96Q40)
T1 construct: gene CDK15
Description: as §1

MLK2 = target: T2, MLK2 (Homo sapiens, UniProt Q02779)
T2 construct: gene MAP3K10
Description: as §1

GRK3 = GRK3 (Homo sapiens, UniProt P35626)
Description: as §1

ALK(C1156Y) = ALK(C1156Y) (Homo sapiens, UniProt Q9UM73, C1156Y)
Description: as §1

TRKC = target: T3, TRKC (Homo sapiens, UniProt Q16288)
T3 construct: gene NTRK3
Description: as §1

ERK2 = target: T4, ERK2 (Homo sapiens, UniProt P28482)
T4 construct: gene MAPK1
Description: as §1

CDK2 = CDK2 (Homo sapiens, UniProt P24941)
Description: as §1

[1] = target: T5, ABL1(T315I)-phosphorylated (Homo sapiens, UniProt P00519, T315I)
T5 construct: phosphorylated
Description: as §1

SGK = target: T6, SGK (Homo sapiens, UniProt O00141)
T6 construct: gene SGK1
Description: as §1

LIMK1 = LIMK1 (Homo sapiens, UniProt P53667)
Description: as §1

PRP4 = target: T7, PRP4 (Homo sapiens, UniProt Q13523)
T7 construct: gene PRPF4B
Description: as §1

EPHA2 = EPHA2 (Homo sapiens, UniProt P29317)
Description: as §1

PIK4CB = target: T8, PIK4CB (Homo sapiens, UniProt Q9UBF8)
T8 construct: gene PI4KB
Description: as §1

LCK = LCK (Homo sapiens, UniProt P06239)
Description: as §1

PRKCQ = PRKCQ (Homo sapiens, UniProt Q04759)
Description: as §1

CDK11 = target: T9, CDK11 (Homo sapiens, UniProt Q9BWU1)
T9 construct: gene CDK19
Description: as §1

MEK1 = target: T10, MEK1 (Homo sapiens, UniProt Q02750)
T10 construct: gene MAP2K1
Description: as §1

TSSK3 = TSSK3 (Homo sapiens, UniProt Q96PN8)
Description: as §1

CAMK1 = CAMK1 (Homo sapiens, UniProt Q14012)
Description: as §1

MET(M1250T) = MET(M1250T) (Homo sapiens, UniProt P08581, M1250T)
Description: as §1

NEK5 = NEK5 (Homo sapiens, UniProt Q6P3R8)
Description: as §1

BIKE = target: T11, BIKE (Homo sapiens, UniProt Q9NSY1)
T11 construct: gene BMP2K
Description: as §1

PRKD1 = PRKD1 (Homo sapiens, UniProt Q15139)
Description: as §1

FGFR1 = FGFR1 (Homo sapiens, UniProt P11362)
Description: as §1

Chain of LCK (P06239 whole entry): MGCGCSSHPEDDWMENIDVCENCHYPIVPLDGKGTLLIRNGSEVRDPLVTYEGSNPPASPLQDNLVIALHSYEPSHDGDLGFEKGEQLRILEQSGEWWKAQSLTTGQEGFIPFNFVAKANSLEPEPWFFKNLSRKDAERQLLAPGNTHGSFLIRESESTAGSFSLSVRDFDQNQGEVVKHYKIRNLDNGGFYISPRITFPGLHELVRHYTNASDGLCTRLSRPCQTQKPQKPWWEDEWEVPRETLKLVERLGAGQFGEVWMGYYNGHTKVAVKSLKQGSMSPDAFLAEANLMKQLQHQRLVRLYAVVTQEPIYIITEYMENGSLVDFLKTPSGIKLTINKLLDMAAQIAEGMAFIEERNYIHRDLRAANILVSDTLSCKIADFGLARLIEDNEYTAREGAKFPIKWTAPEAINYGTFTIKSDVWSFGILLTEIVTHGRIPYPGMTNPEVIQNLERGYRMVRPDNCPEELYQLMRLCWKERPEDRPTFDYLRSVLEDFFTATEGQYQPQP
T3 sequence (Q16288 whole entry): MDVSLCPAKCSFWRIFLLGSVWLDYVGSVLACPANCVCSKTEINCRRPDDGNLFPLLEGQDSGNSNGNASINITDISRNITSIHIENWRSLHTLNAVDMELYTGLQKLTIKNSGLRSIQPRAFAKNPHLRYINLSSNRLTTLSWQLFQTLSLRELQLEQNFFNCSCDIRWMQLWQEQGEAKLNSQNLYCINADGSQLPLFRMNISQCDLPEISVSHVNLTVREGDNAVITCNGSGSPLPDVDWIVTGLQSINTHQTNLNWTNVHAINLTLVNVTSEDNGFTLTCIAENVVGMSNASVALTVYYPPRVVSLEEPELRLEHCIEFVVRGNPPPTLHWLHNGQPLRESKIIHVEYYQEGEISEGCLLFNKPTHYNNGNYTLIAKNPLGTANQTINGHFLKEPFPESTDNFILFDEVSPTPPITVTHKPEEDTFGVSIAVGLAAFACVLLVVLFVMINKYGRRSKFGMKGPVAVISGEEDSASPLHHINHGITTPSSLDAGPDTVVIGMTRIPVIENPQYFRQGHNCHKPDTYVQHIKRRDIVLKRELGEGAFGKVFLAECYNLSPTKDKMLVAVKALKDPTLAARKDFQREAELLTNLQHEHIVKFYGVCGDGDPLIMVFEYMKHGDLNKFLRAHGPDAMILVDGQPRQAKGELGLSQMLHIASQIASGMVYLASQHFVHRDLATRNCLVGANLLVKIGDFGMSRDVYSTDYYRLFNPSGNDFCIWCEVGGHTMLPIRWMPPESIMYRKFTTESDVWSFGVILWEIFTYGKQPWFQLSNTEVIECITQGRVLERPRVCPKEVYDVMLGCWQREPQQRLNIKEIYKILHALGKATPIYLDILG
T2 sequence (Q02779 whole entry): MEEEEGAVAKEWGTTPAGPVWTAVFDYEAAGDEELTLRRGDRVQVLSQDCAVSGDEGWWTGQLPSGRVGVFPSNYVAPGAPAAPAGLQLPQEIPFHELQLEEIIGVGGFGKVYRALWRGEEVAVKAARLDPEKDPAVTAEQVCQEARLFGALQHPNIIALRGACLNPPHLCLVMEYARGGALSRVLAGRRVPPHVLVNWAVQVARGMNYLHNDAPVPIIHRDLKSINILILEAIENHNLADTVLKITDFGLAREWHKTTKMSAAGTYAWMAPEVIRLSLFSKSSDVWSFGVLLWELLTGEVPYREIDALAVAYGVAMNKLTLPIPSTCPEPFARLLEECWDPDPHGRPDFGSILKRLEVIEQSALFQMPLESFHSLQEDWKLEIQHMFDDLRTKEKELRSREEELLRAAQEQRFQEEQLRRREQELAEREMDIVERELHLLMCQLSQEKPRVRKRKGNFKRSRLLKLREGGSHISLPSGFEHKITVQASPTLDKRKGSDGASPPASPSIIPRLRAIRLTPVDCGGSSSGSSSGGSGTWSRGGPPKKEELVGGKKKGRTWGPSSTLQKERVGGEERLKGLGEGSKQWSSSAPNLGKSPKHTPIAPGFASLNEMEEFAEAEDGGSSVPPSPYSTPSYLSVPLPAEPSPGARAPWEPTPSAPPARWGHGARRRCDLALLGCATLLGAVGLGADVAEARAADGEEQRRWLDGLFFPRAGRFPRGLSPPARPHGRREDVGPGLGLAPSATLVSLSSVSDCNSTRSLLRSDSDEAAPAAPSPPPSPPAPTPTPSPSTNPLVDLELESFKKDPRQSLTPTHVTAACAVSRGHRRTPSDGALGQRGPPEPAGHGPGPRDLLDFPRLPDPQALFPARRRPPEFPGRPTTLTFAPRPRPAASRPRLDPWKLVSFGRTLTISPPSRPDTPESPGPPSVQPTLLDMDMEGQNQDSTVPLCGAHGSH
T7 sequence (Q13523 whole entry): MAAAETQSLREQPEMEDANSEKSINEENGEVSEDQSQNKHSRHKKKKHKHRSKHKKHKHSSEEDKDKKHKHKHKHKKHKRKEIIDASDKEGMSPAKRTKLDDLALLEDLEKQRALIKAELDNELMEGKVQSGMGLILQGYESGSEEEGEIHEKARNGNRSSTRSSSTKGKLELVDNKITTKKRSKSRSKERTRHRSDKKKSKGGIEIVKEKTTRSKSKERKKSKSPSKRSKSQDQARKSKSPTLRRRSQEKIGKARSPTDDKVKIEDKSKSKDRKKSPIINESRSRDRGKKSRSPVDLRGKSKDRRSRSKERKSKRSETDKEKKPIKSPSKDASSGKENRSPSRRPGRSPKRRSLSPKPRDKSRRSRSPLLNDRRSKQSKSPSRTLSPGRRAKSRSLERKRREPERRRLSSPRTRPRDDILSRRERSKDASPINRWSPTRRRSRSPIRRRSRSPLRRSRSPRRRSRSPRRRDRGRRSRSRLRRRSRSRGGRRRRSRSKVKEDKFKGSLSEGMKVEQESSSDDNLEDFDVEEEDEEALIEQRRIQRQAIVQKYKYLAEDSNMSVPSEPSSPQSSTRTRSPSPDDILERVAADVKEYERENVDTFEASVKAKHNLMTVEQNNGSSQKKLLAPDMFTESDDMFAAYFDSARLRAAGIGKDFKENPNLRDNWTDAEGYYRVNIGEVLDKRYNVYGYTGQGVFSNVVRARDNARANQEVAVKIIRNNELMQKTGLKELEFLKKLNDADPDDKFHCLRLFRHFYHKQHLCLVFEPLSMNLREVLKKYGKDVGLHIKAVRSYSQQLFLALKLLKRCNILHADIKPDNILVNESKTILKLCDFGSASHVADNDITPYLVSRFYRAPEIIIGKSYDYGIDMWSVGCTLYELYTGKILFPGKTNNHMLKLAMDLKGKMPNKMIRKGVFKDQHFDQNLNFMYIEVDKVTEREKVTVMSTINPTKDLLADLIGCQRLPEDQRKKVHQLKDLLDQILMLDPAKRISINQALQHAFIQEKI
T1 sequence (Q96Q40 whole entry): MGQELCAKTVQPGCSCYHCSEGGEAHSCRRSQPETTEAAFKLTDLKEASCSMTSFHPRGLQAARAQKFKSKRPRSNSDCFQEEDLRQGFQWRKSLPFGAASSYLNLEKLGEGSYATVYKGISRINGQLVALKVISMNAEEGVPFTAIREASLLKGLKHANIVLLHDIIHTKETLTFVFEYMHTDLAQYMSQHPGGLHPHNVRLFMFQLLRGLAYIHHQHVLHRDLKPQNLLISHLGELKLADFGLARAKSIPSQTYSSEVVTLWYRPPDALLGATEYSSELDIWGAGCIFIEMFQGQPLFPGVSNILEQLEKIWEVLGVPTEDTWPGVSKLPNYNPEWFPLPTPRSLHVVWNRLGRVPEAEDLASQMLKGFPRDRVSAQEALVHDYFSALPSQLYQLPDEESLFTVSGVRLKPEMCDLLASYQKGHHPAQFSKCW
Chain of FGFR1 (P11362 whole entry): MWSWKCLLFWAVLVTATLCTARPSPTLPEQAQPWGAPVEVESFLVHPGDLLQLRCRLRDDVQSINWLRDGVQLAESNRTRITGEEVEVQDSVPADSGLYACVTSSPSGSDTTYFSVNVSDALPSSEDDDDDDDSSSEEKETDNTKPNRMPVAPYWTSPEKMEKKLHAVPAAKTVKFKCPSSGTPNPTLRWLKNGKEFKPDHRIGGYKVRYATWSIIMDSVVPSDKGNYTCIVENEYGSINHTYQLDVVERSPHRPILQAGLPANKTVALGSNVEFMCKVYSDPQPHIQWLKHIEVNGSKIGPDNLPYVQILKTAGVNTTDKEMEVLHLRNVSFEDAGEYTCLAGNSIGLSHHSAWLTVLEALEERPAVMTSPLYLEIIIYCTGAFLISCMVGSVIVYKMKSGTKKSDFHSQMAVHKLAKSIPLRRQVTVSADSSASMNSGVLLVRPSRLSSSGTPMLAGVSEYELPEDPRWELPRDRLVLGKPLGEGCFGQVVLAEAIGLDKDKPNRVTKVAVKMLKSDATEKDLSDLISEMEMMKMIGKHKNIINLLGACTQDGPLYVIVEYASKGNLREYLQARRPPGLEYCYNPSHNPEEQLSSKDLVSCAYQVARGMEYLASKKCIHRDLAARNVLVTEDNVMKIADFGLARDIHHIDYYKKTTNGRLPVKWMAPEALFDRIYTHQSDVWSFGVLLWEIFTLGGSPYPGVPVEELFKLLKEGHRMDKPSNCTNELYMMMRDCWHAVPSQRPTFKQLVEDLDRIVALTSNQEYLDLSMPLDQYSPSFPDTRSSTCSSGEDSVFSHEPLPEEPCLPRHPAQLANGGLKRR
T6 sequence (O00141 whole entry): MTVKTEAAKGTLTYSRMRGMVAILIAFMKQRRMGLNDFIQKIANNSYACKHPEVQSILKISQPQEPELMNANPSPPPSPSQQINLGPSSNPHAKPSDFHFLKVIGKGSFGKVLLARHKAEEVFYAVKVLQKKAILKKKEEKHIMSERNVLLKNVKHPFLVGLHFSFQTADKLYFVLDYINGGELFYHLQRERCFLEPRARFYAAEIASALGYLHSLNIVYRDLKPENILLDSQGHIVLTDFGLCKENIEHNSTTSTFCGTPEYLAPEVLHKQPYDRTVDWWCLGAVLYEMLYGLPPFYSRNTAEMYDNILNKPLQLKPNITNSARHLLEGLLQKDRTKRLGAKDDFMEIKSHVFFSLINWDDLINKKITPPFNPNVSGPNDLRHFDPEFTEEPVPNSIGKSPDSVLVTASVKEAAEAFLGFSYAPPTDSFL

Q: What does the source list for `Cn1c(=O)[nH]c2ccc(-c3cccc(C(=O)NC4CCn5ccnc5C4)c3)cc21` (stereo not shown) [Z36-MP5]?
A: remaining binding at 1 µM (HASPIN): 71%; remaining binding at 1 µM (PFTAIRE2): 90%; remaining binding at 1 µM (MLK2): 95%; remaining binding at 1 µM (GRK3): 53%; remaining binding at 1 µM (ALK(C1156Y)): 92%; remaining binding at 1 µM (TRKC): 53%; remaining binding at 1 µM (ERK2): 81%; remaining binding at 1 µM (CDK2): 91%; remaining binding at 1 µM [1]: 49%; remaining binding at 1 µM (SGK): 68%; remaining binding at 1 µM (LIMK1): 85%; remaining binding at 1 µM (PRP4): 84%; remaining binding at 1 µM (EPHA2): 88%; remaining binding at 1 µM (PIK4CB): 100%; remaining binding at 1 µM (LCK): 49%; remaining binding at 1 µM (PRKCQ): 86%; remaining binding at 1 µM (CDK11): 82%; remaining binding at 1 µM (MEK1): 63%; remaining binding at 1 µM (TSSK3): 42%; remaining binding at 1 µM (CAMK1): 91%; remaining binding at 1 µM (MET(M1250T)): 88%; remaining binding at 1 µM (NEK5): 90%; remaining binding at 1 µM (BIKE): 100%; remaining binding at 1 µM (PRKD1): 100%; remaining binding at 1 µM (FGFR1): 55%
